# PubChem BioAssay AID1963984 (Molecular Pharmacology Branch, DTP, NCI, 2024)
# Test system: 233499-124-R-J3-PDC spheroids with HUVEC/MSC, viability
# Test: Anticancer human tumor 233499-124-R-J3-PDC patient-derived colon adenocarcinoma cell line growth inhibition [PI3K]
# Conditions: for IC50: curve of first compound; for viability, T/C: stronger effect = lower value
# Method in brief: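 Spheroid viability read-out. Co-cultures contained the tumor line plus HUVEC and human MSCs. Each agent was paired with a PI3K inhibitor (inavolisib, alpelisib, duvelisib, copanlisib) across half-log dilutions starting at clinical Cmax, or at 10 microM when Cmax was unknown.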
# [1] = second compound 0.00316 µM, first compound 0.0316 µM
# [2] = second compound 0.00316 µM, first compound 0.1 µM
# [3] = second compound 0.01 µM, first compound 0.0316 µM
# [4] = second compound 0.01 µM, first compound 0.1 µM
# [5] = second compound 0.0316 µM, first compound 0.0316 µM
# [6] = second compound 0.0316 µM, first compound 0.1 µM
# [7] = second compound 0.1 µM, first compound 0.0316 µM
# [8] = second compound 0.1 µM, first compound 0.1 µM
# [9] = second compound 0.316 µM, first compound 0.0316 µM
# [10] = second compound 0.316 µM, first compound 0.1 µM
# [11] = second compound 1 µM, first compound 0.0316 µM
# [12] = second compound 1 µM, first compound 0.1 µM
# [13] = second compound 0.00316 µM, first compound 0.316 µM
# [14] = second compound 0.00316 µM, first compound 1 µM
# [15] = second compound 0.00316 µM, first compound 3.16 µM
# [16] = second compound 0.00316 µM, first compound 10 µM
# [17] = second compound 0.01 µM, first compound 0.316 µM
# [18] = second compound 0.01 µM, first compound 1 µM
# [19] = second compound 0.01 µM, first compound 3.16 µM
# [20] = second compound 0.01 µM, first compound 10 µM
# [21] = second compound 0.0316 µM, first compound 0.316 µM
# [22] = second compound 0.0316 µM, first compound 1 µM
# [23] = second compound 0.0316 µM, first compound 3.16 µM
# [24] = second compound 0.0316 µM, first compound 10 µM
# [25] = second compound 0.1 µM, first compound 0.316 µM
# [26] = second compound 0.1 µM, first compound 1 µM
# [27] = second compound 0.1 µM, first compound 3.16 µM
# [28] = second compound 0.1 µM, first compound 10 µM
# [29] = second compound 0.316 µM, first compound 0.316 µM
# [30] = second compound 0.316 µM, first compound 1 µM
# [31] = second compound 0.316 µM, first compound 3.16 µM
# [32] = second compound 0.316 µM, first compound 10 µM
# [33] = second compound 1 µM, first compound 0.316 µM
# [34] = second compound 1 µM, first compound 1 µM
# [35] = second compound 1 µM, first compound 3.16 µM
# [36] = second compound 1 µM, first compound 10 µM
# 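Also: spheroids exposed to agents for seven days before readout.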
# 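For viability, T/C in this document: percent viability relative to DMSO vehicle control taken as 100%.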
compound,measurement,setting,value
CC(=O)c1c(C)c2cnc(Nc3ccc(N4CCNCC4)cn3)nc2n(C2CCCC2)c1=O + COc1c(OCCCN2CCOCC2)ccc2c3n(c(=NC(=O)c4cnc(N)nc4)nc12)CCN3,IC50,second compound 0.00316 µM,> 0.1 µM
same,IC50,second compound 0.01 µM,> 0.1 µM
same,IC50,second compound 0.0316 µM,> 0.1 µM
same,IC50,second compound 0.1 µM,> 0.1 µM
same,IC50,second compound 0.316 µM,< 0.000316 µM
same,IC50,second compound 1 µM,< 0.000316 µM
same,"viability, T/C","second compound 0.00316 µM, first compound 0.000316 µM",106%
same,"viability, T/C","second compound 0.00316 µM, first compound 0.001 µM",106%
same,"viability, T/C","second compound 0.00316 µM, first compound 0.00316 µM",121%
same,"viability, T/C","second compound 0.00316 µM, first compound 0.01 µM",106%
same,"viability, T/C",[1],76.5%
same,"viability, T/C",[2],61%
same,"viability, T/C","second compound 0.01 µM, first compound 0.000316 µM",86.5%
same,"viability, T/C","second compound 0.01 µM, first compound 0.001 µM",119%
same,"viability, T/C","second compound 0.01 µM, first compound 0.00316 µM",89.2%
same,"viability, T/C","second compound 0.01 µM, first compound 0.01 µM",89.3%
same,"viability, T/C",[3],83%
same,"viability, T/C",[4],75.7%
same,"viability, T/C","second compound 0.0316 µM, first compound 0.000316 µM",90%
same,"viability, T/C","second compound 0.0316 µM, first compound 0.001 µM",95.8%
same,"viability, T/C","second compound 0.0316 µM, first compound 0.00316 µM",94.4%
same,"viability, T/C","second compound 0.0316 µM, first compound 0.01 µM",86.8%
same,"viability, T/C",[5],86.2%
same,"viability, T/C",[6],86%
same,"viability, T/C","second compound 0.1 µM, first compound 0.000316 µM",56.3%
same,"viability, T/C","second compound 0.1 µM, first compound 0.001 µM",78.8%
same,"viability, T/C","second compound 0.1 µM, first compound 0.00316 µM",63.7%
same,"viability, T/C","second compound 0.1 µM, first compound 0.01 µM",73.2%
same,"viability, T/C",[7],61.6%
same,"viability, T/C",[8],62.4%
same,"viability, T/C","second compound 0.316 µM, first compound 0.000316 µM",28.7%
same,"viability, T/C","second compound 0.316 µM, first compound 0.001 µM",32.3%
same,"viability, T/C","second compound 0.316 µM, first compound 0.00316 µM",30.3%
same,"viability, T/C","second compound 0.316 µM, first compound 0.01 µM",31.8%
same,"viability, T/C",[9],27.5%
same,"viability, T/C",[10],31.2%
same,"viability, T/C","second compound 1 µM, first compound 0.000316 µM",13.7%
same,"viability, T/C","second compound 1 µM, first compound 0.001 µM",4.51%
same,"viability, T/C","second compound 1 µM, first compound 0.00316 µM",5.25%
same,"viability, T/C","second compound 1 µM, first compound 0.01 µM",12.8%
same,"viability, T/C",[11],10.7%
same,"viability, T/C",[12],10.2%
CCCS(=O)(=O)Nc1ccc(F)c(C(=O)c2c[nH]c3ncc(-c4ccc(Cl)cc4)cc23)c1F + COc1c(OCCCN2CCOCC2)ccc2c3n(c(=NC(=O)c4cnc(N)nc4)nc12)CCN3,IC50,second compound 0.00316 µM,5 µM
same,IC50,second compound 0.01 µM,5.78 µM
same,IC50,second compound 0.0316 µM,5.03 µM
same,IC50,second compound 0.1 µM,3.41 µM
same,IC50,second compound 0.316 µM,< 0.0316 µM
same,IC50,second compound 1 µM,< 0.0316 µM
same,"viability, T/C",[1],84%
same,"viability, T/C",[2],87.8%
same,"viability, T/C",[13],101%
same,"viability, T/C",[14],94.1%
same,"viability, T/C",[15],79.6%
same,"viability, T/C",[16],5.08%
same,"viability, T/C",[3],88.4%
same,"viability, T/C",[4],93.8%
same,"viability, T/C",[17],88.9%
same,"viability, T/C",[18],83%
same,"viability, T/C",[19],90.1%
same,"viability, T/C",[20],14.7%
same,"viability, T/C",[5],89.7%
same,"viability, T/C",[6],78.3%
same,"viability, T/C",[21],84.2%
same,"viability, T/C",[22],74.5%
same,"viability, T/C",[23],77.6%
same,"viability, T/C",[24],9.06%
same,"viability, T/C",[7],50.2%
same,"viability, T/C",[8],56%
same,"viability, T/C",[25],54.5%
same,"viability, T/C",[26],51.5%
same,"viability, T/C",[27],52.7%
same,"viability, T/C",[28],12.5%
same,"viability, T/C",[9],33.7%
same,"viability, T/C",[10],35.8%
same,"viability, T/C",[29],38.2%
same,"viability, T/C",[30],27.2%
same,"viability, T/C",[31],23.6%
same,"viability, T/C",[32],2.75%
same,"viability, T/C",[11],10.5%
same,"viability, T/C",[12],9.36%
same,"viability, T/C",[33],6.83%
same,"viability, T/C",[34],18.9%
same,"viability, T/C",[35],8.57%
same,"viability, T/C",[36],1.66%
CNC(=O)c1ccc(N2C(=S)N(c3ccc(C#N)c(C(F)(F)F)c3)C(=O)C2(C)C)cc1F + COc1c(OCCCN2CCOCC2)ccc2c3n(c(=NC(=O)c4cnc(N)nc4)nc12)CCN3,IC50,second compound 0.00316 µM,> 10 µM
same,IC50,second compound 0.01 µM,> 10 µM
same,IC50,second compound 0.0316 µM,> 10 µM
same,IC50,second compound 0.1 µM,4.12 µM
same,IC50,second compound 0.316 µM,< 0.0316 µM
same,IC50,second compound 1 µM,< 0.0316 µM
same,"viability, T/C",[1],93.8%
same,"viability, T/C",[2],97.3%
same,"viability, T/C",[13],97.2%
same,"viability, T/C",[14],81.9%
same,"viability, T/C",[15],65.7%
same,"viability, T/C",[16],54.3%
same,"viability, T/C",[3],88.1%
same,"viability, T/C",[4],105%
same,"viability, T/C",[17],99%
same,"viability, T/C",[18],87.7%
same,"viability, T/C",[19],89.9%
same,"viability, T/C",[20],60.1%
same,"viability, T/C",[5],101%
same,"viability, T/C",[6],85.3%
same,"viability, T/C",[21],98.3%
same,"viability, T/C",[22],78.1%
same,"viability, T/C",[23],63.8%
same,"viability, T/C",[24],50.4%
same,"viability, T/C",[7],84%
same,"viability, T/C",[8],53.8%
same,"viability, T/C",[25],75.2%
same,"viability, T/C",[26],64.2%
same,"viability, T/C",[27],47.4%
same,"viability, T/C",[28],44%
same,"viability, T/C",[9],33%
same,"viability, T/C",[10],30.5%
same,"viability, T/C",[29],44.1%
same,"viability, T/C",[30],32.3%
same,"viability, T/C",[31],30.7%
same,"viability, T/C",[32],12.1%
same,"viability, T/C",[11],10%
same,"viability, T/C",[12],24.7%
same,"viability, T/C",[33],6.89%
same,"viability, T/C",[34],5.24%
same,"viability, T/C",[35],10.3%
same,"viability, T/C",[36],4.27%
